Assay results as given in patent publication US20100099642A1, “TGF-BETA STIMULANT AND FURTHER AGENT TO REDUCE SIDE EFFECTS” (TCP Innovations Limited, priority 2007, published 2010).

Assays:
tgfb2 mRNA = tgfb2 mRNA level by quantitative PCR in human aortic vascular smooth muscle cells; type: cell-based; details: 24 hrs, normalised to TBP, vs vehicle
Description: (1995) Cardiovasc. Res. 29:848-55). […] The cells were then incubated for either 24 hrs or 72 hrs depending on the experiment. All treatment conditions were established in triplicate. The level of mRNA for tgfb1, tgfb2 and tgfb3 were estimated by quantitative PCR. The media was removed and RNA was carefully prepared using the Ambion RNAqueous4PCR kit (Ambion#1914) in accordance with the manufacturer's instructions. The purity of the RNA and the quantity was assessed spectrophotometrically. […] This analysis results in both a gel-like image as well as electrophoretic data. Indications of RNA degradation are: (a) decreasing ratio of ribosomal bands (b) additional peaks bellow the ribosomal bands (c) Decrease in overall RNA signal (d) shift towards shorter fragments. […] Next, the RNA was converted to cDNA using the ABI High-Capacity cDNA Archive Kit, in accordance with manufacturer's instructions. The qPCR assay was then set up as follow: all cDNA samples were diluted to 180 μl total volume using Molecular grade water. Samples were vortexed to ensure thorough mixing. cDNA was aliquoted into ABI 384 well plates using a multi-channel pipette, 4.5 μl of sample into each well. Samples were assayed in triplicate (that is, nine determinations in total were made for each condition, being three separate assays on each of three replicate culture wells). The assay mix and Universal Master Mix were prepared and aliquoted across the 384 well plates 5.5 μl in each well, using a single channel pipette. The final composition of each reaction (10 μl) being: Primer/Probe assay mix (×20)=0.5 μl; Universal Master Mix=5 μl; cDNA=4.5 μl. […] Quantitative PCR was performed using several primer/probe sets. […] In all quantitative PCR experiments, several additional controls were included: firstly, a control for each sample is run with no reverse transcription to ensure the mRNA sample is not contaminated with genomic DNA (although the manual design probe/primer sets were all selected to cross an exon/exon boundary, ensuring no detectable amplicon is produced from genomic DNA templates). […]

tgfb3 mRNA = tgfb3 mRNA level by quantitative PCR in human aortic vascular smooth muscle cells; type: cell-based; details: 24 hrs, normalised to TBP, vs vehicle
Description: (1995) Cardiovasc. Res. 29:848-55). […] The cells were then incubated for either 24 hrs or 72 hrs depending on the experiment. All treatment conditions were established in triplicate. The level of mRNA for tgfb1, tgfb2 and tgfb3 were estimated by quantitative PCR. The media was removed and RNA was carefully prepared using the Ambion RNAqueous4PCR kit (Ambion#1914) in accordance with the manufacturer's instructions. The purity of the RNA and the quantity was assessed spectrophotometrically. […] This analysis results in both a gel-like image as well as electrophoretic data. Indications of RNA degradation are: (a) decreasing ratio of ribosomal bands (b) additional peaks bellow the ribosomal bands (c) Decrease in overall RNA signal (d) shift towards shorter fragments. […] Next, the RNA was converted to cDNA using the ABI High-Capacity cDNA Archive Kit, in accordance with manufacturer's instructions. The qPCR assay was then set up as follow: all cDNA samples were diluted to 180 μl total volume using Molecular grade water. Samples were vortexed to ensure thorough mixing. cDNA was aliquoted into ABI 384 well plates using a multi-channel pipette, 4.5 μl of sample into each well. Samples were assayed in triplicate (that is, nine determinations in total were made for each condition, being three separate assays on each of three replicate culture wells). The assay mix and Universal Master Mix were prepared and aliquoted across the 384 well plates 5.5 μl in each well, using a single channel pipette. The final composition of each reaction (10 μl) being: Primer/Probe assay mix (×20)=0.5 μl; Universal Master Mix=5 μl; cDNA=4.5 μl. The plates were then heat sealed using Abgene clear seal strong plastic heat seals, and then cycled and scanned using the […] under the following conditions: 95° C. for 10 minutes to activate the AmpliTaq GOLD, then 40 cycles of: 95° C. for 15 Sec (Denaturation), 60° C. for 60 […]). […] Quantitative PCR was performed using several primer/probe sets. […] We used both commercially available primer/probe sets (ABI Taqman pre-validated assays), using both available sets in the ABI database for tgfb1 and tgfb2, as well as the single available set for tgfb3. In addition, we used our own manual design probe/primer set for each of tgfb1, tgfb2 and tgfb3. […] In all quantitative PCR experiments, several additional controls were included: firstly, a control for each sample is run with no reverse transcription to ensure the mRNA sample is not contaminated with genomic DNA (although the manual design probe/primer sets were all selected to cross an exon/exon boundary, ensuring no detectable amplicon is produced from genomic DNA templates). Secondly, a control reaction is run using serial 2-fold dilutions of a standard cDNA preparation (prepared from commercially available IMAGE clones). […] Failure of either control led to the repeat of the entire experiment.

apoE-deficient mice = assay: vascular lipid lesion formation at the aortic root (Oil Red O) in apoE-deficient mice; type: in vivo, mouse; details: 12 weeks in chow, TMX 1 mg/kg/day, Aspirin 30 mg/kg/day, mean ± SD, n = 8
Description: Adult male apoE-deficient mice, back-crossed onto a C57B16 background for at least five generations, were randomised into groups of eight animals at 12 weeks of age, such that each group had similar average body weight. […] Note that the mice receiving both compounds received food pellets into which a homogenous mixture of the ingredients had been compounded, and not a mixture of food pellets each containing one of the two active ingredients. The amount of food eaten and the body weight of each mouse was monitored daily for the first week, and once per week thereafter. After 12 weeks of treatment, the mice were sacrificed by CO2 asphyxiation, and heart & lung blocks were excised, embedded in Cryo-M-bed (Bright Instruments, UK) without fixation and snap frozen in liquid nitrogen.
Sections were then prepared from the aortic root according to the Paigen Strategy (a defined sequence of cutting sections which allow reproducible comparison between animals; see for example Grainger et al. (1995) Nature Med. 1:1067-72 and the references therein). 4 μm crysosections were cut using a motordriven cryotome (Bright Instruments) and collected onto poly-L-lysine coated glass microscope slides, then fixed in ice-cold acetone for 90 secs, allowed to air dry and stored at −20° C. until analysed.
The extent of vascular lipid lesion formation was assessed by Oil Red O staining, with a Fast Green counterstain, a standard histological procedure well known in the art. Briefly, five sections (selected according to the Paigen strategy) from each animal were passed through graded alcohol solutions, then stained in Oil Red O for 12 minutes, washed several times and then counterstained by dipping in Fast Green for 5-10 secs, and then dip washed in several changes of clean water. After air drying, an appropriate mountant was applied (simple glycerol-based moutants are most appropriate for this task), followed by a coverslip using acrylic varnish surrounding the coverslip to hold it in place. Slides were then analysed using a simple inverted microscope (no phase contrast; 10× objective; Olympus AX series), fitted with a digital camera to capture images of the entire aortic wall. The images were subsequently processed, blind to the treatment status of the animal, using Openlab image analysis software (Improvision, UK) running on an Apple Macintosh computer. […]
Mice were sacrificed and heart & lung blocks prepared and processed exactly as described in Example 2. […] The extent of lipid lesion formation was assessed by Oil Red O staining with Fast Green counterstain, exactly as in example 2.

[1] = system: anti-carbohydrate antibodies; assay: anti-carbohydrate antibody isotypes by direct ELISA in serum of men with coronary artery disease; type: in vivo, human; details: 3 months, Tamoxifen 20 mg once daily, aspirin 75 mg once daily, mean ± SD
Description: (§1) Patients continued with all other medications (statins, ACE inhibitors, beta blockers, calcium channel blockers, diuretics etc), but no patients were taking warfarin or tirofiban.
The level of anti-carbohydrate antibodies was measured by direct ELISA as previously described (Mosedale et al (2006) J. Immunol. Meth. 309:182-91). […] After a final 3 washes in PBS/Tween and single wash in PBS, 200 μl of K-blue chromogenic substrate was added to each well.
as §1
The level of anti-carbohydrate antibodies was then measured by direct ELISA using the procedure given in Example 5

Row | SMILES | Level of tgfb2 mRNA, estimated by qPCR (tgfb2 mRNA; 10 μM A) [fold-change] | Level of tgfb2 mRNA, estimated by qPCR (tgfb2 mRNA; 33 μM A) [fold-change] | Level of tgfb2 mRNA, estimated by qPCR (tgfb2 mRNA; 100 μM A) [fold-change] | Level of tgfb3 mRNA, estimated by qPCR (tgfb3 mRNA; 10 μM A) [fold-change] | Level of tgfb3 mRNA, estimated by qPCR (tgfb3 mRNA; 33 μM A) [fold-change] | Level of tgfb3 mRNA, estimated by qPCR (tgfb3 mRNA; 100 μM A) [fold-change] | Total intimal area (apoE-deficient mice) | Level of tgfb3 mRNA, estimated by qPCR (tgfb3 mRNA; 3.3 μM T) [fold-change] | Level of tgfb3 mRNA, estimated by qPCR (tgfb3 mRNA; 10 μM T) [fold-change] | Level of tgfb3 mRNA, estimated by qPCR (tgfb3 mRNA; 33 μM T) [fold-change] | Intimal lipid lesion area (apoE-deficient mice) | Lipid lesion area (apoE-deficient mice) | IgG2 titre, change versus baseline [1] | IgG2 Absorbance, change versus baseline ([1]; neat serum)
1 | CC(=O)Oc1ccccc1C(=O)O [Aspirin, acetylsalicylic acid] | 0.92 ± 0.10 | 1.00 ± 0.17 | 1.03 ± 0.16 | 1.09 ± 0.08 | 1.06 ± 0.13 | 0.94 ± 0.09 | 65,209 ± 6,712 μm2 |  |  |  |  |  |  | 
2 | CC/C(=C(\c1ccccc1)c1ccc(OCCN(C)C)cc1)c1ccccc1 [Tamoxifen] |  |  |  |  |  |  | 64,428 ± 4,294 μm2 | 0.92 ± 0.16 | 1.19 ± 0.21 | 1.31 ± 0.11 | 9,393 ± 2,221 μm2 | 10,794 ± 2,820 μm2 | +176% ± 43% | +0.61 ± 0.17
